≈ marks a conversion by molar mass, not a printed value. Results filed as inconclusive are left out. Calls of active or inactive are those of the source. How the calls were made is not given here.
System: M. tuberculosis H37Rv growth inhibition
Assay: Mycobacterium tuberculosis H37Rv growth inhibition, cell based, confirmatory dose response (AID 1949);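 further: bacteria grown 7 days with compound before Alamar blue readout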

Compound	IC50
COc1ccc(C)cc1NC(=O)c1ccc(CN2CCC(Cc3ccccc3)CC2)cc1	3.36 µg/mL (≈ 7.84 µM)
C/C(=N/N=C1\NC(=O)C(Cc2ccc(F)cc2)S1)c1ccc(Cl)cc1 (centres undefined)	1.48 µg/mL (≈ 3.94 µM)
COC(=O)COc1ccc(CSCC(=O)Nc2ccc3ccccc3c2)cc1	0.44 µg/mL (≈ 1.11 µM)
Cc1ccc(NC(=O)C(Cl)Cl)cc1[N+](=O)[O-]	2.18 µg/mL (≈ 8.29 µM)
COC(=O)c1c(C)oc2ccc(OC(=O)c3cccc([N+](=O)[O-])c3)cc12	3.65 µg/mL (≈ 10.3 µM)
COc1ccccc1-c1c(C)oc2cc(OCc3ccccc3)ccc2c1=O	9.15 µg/mL (≈ 24.6 µM)
O=C(NCCC1=CCCCC1)Nc1ccc([N+](=O)[O-])cc1	11.6 µg/mL (≈ 40 µM)
Cc1cc(O)ccc1N1C(=O)c2cccc3c([N+](=O)[O-])ccc(c23)C1=O	21.3 µg/mL (≈ 61.1 µM)
Cc1cc(C(=O)Oc2ccccc2)ccc1[N+](=O)[O-]	1.87 µg/mL (≈ 7.27 µM)
O=C(CSc1nnc(-c2ccccc2)o1)Nc1ccc2ccccc2c1	1.02 µg/mL (≈ 2.82 µM)
CCOC(=O)c1ccc(NC(=S)Nc2ccc(F)c(Cl)c2)cc1	0.28 µg/mL (≈ 0.794 µM)
COc1ccc(C(=O)CCNc2cccc(C)c2)cc1	8.33 µg/mL (≈ 30.9 µM)
CCOC(=O)c1cc(-c2ccccc2)sc1NC(=S)NC(C)c1ccncc1 (centres undefined)	1.47 µg/mL (≈ 3.57 µM)
COCCNc1nc(-c2ccc(Cl)cc2)nc2ccccc12	> 50 µg/mL (inactive)
O=C(Cc1ccc(F)cc1)Nc1ccc(Cl)c(C(F)(F)F)c1	1.2 µg/mL (≈ 3.62 µM)
Cc1ccc2nc(NCc3ccccc3)[nH]c2c1	1.49 µg/mL (≈ 6.28 µM)
O=C(NC1CCCCC1)c1ccc(COc2cccc3ccccc23)o1	4.65 µg/mL (≈ 13.3 µM)
O=[N+]([O-])/C=C/c1ccc(-c2ccc(F)cc2)o1	10.1 µg/mL (≈ 43.3 µM)
Cc1ccc(NC(=O)NC23CC4(C)CC(C)(CC(C)(C4)C2)C3)cc1	> 50 µg/mL (inactive)
CCn1nnc(NC(=O)c2sc3ccccc3c2Cl)n1	3.02 µg/mL (≈ 9.81 µM)

Compound	IC50
CCOC(=O)c1c(NC(=O)CN2CCN(CCO)CC2)sc2c1CCC(C)C2 (centres undefined)	7.17 µg/mL (≈ 17.5 µM)
CC(C)c1ccc(NC(=S)NC(=O)c2ccccc2F)cc1	2.56 µg/mL (≈ 8.09 µM)
CCOC(=O)c1ccc(NC(=S)NC(=O)CCc2ccccc2)cc1	1.76 µg/mL (≈ 4.94 µM)
CC(C(=O)Oc1cccc2cccnc12)N1C(=O)C2C3C=CC(C4CC34)C2C1=O (centres undefined)	3.16 µg/mL (≈ 8.14 µM)
COc1ccc(C(C)(C)C)cc1NC(=S)Nc1ccc(Cl)c(Cl)c1	1.43 µg/mL (≈ 3.73 µM)
CCc1cc2c(=O)c(-c3ccc4c(c3)OCCO4)coc2cc1OCC(=O)OC(C)C	5.83 µg/mL (≈ 13.7 µM)
CC(=O)Oc1c(C(=O)c2ccccc2)sc2ccccc12	0.71 µg/mL (≈ 2.4 µM)
O=C1CC(c2ccc(Cl)cc2)CC2=C1C(c1ccc(C(F)(F)F)cc1)Nc1ccccc1N2 (centres undefined)	2.14 µg/mL (≈ 4.56 µM)
COc1cccc(N2C(=O)c3cccc4cc([N+](=O)[O-])cc(c34)C2=O)c1	11 µg/mL (≈ 31.7 µM)
CCCCC(=O)Nc1ccc(C(=O)N2CCN(c3cccc(C(F)(F)F)c3)CC2)cc1	9.86 µg/mL (≈ 22.7 µM)
CCC(C)c1ccc(O)c(NC(=S)NC(=O)c2cccnc2)c1 (centres undefined)	< 0.1 µg/mL
CCOc1ccccc1C(=O)Nc1ccccc1O	8.93 µg/mL (≈ 34.7 µM)
CCC(C)NCCCCOc1ccc(Cl)cc1C(C)(C)C (centres undefined)	4.49 µg/mL (≈ 14.4 µM)
O=C(Nc1ccc(Cl)cc1)c1cc([N+](=O)[O-])ccc1O	17.7 µg/mL (≈ 60.6 µM)
CCOC(=O)c1ccc(NC(=O)/C=C/c2ccc([N+](=O)[O-])s2)cc1	0.28 µg/mL (≈ 0.808 µM)
COC(=O)COc1ccc(/C=C(/C#N)c2nc3ccccc3[nH]2)cc1	0.67 µg/mL (≈ 2.01 µM)
c1ccc(Nc2nc(Nc3ccccc3)nc(N3CCNCC3)n2)cc1	3.99 µg/mL (≈ 11.5 µM)
COC(=O)CSc1nnc(-c2ccc(Cl)cc2)o1	< 0.1 µg/mL
CC(=O)Oc1cccc2ccc(/C=C/c3cccc(Br)c3)nc12	< 0.1 µg/mL
FC(F)(F)c1ccccc1Nc1nc(-c2ccccn2)cs1	< 0.1 µg/mL

Compound	IC50
C#CCOc1c(Cl)cc(/C=C/[N+](=O)[O-])cc1Cl	> 50 µg/mL (inactive)
CC(C)OC(=O)COc1cc(O)c2c(=O)cc(-c3ccccc3)oc2c1	19.6 µg/mL (≈ 55.2 µM)
Cc1cc(N2CCCC2)c(C)cc1/C=C\[N+](=O)[O-]	> 50 µg/mL (inactive)
C=CCOc1c(Cl)cc(/C=C/[N+](=O)[O-])cc1OCC	23.4 µg/mL (≈ 82.5 µM)
O=C(c1ccc(NC(=O)C2(c3ccccc3)CCCC2)cc1)N1CCCCC1	1.24 µg/mL (≈ 3.29 µM)
CCCCc1ccc(NC(=O)CSCc2ccc(OC)cc2)cc1	12.9 µg/mL (≈ 37.5 µM)
CN1CCN(c2ccc(NC(=S)NC(=O)c3ccc(-c4cccc(Cl)c4)o3)cc2)CC1	0.38 µg/mL (≈ 0.835 µM)
COc1cc(Br)cc2cc(C(=O)Nc3ccccc3C(F)(F)F)c(=O)oc12	> 50 µg/mL (inactive)
Cc1cccc(OCc2nnc(SCC(=O)NCCc3ccccc3)o2)c1	0.46 µg/mL (≈ 1.2 µM)
O=C(/C=C/c1cccs1)N1CCN(Cc2ccc3c(c2)OCO3)CC1	< 0.1 µg/mL
CC(NC(=S)NC(=O)c1ccc(-c2ccccc2)cc1)c1ccccc1 (centres undefined)	5.85 µg/mL (≈ 16.2 µM)
O=C(Nc1cccc(CCc2ccccn2)c1)NC1CCCCC1	38.7 µg/mL (≈ 120 µM)
Oc1ccc(Br)cc1-c1nc(-c2cccs2)c(-c2cccs2)[nH]1	1.55 µg/mL (≈ 3.84 µM)
O=C(CCN1CCC(c2ccccc2)C1)c1cccs1 (centres undefined)	11.5 µg/mL (≈ 40.2 µM)
COc1c(C)cccc1C(=O)Nc1ccc(N2CCCC2)cc1	4.85 µg/mL (≈ 15.6 µM)
Cc1cccc(C)c1OCc1nnc(SCC(=O)NCCc2ccccc2)o1	1.75 µg/mL (≈ 4.4 µM)
O=C(NCCc1c[nH]c2ccccc12)Nc1ccc(Cl)c(Cl)c1	3.69 µg/mL (≈ 10.6 µM)
Cc1ccc(-c2nnc3sc(Cc4ccccc4)nn23)cc1	< 0.1 µg/mL
Nc1ccccc1NCCOc1ccccc1	1.01 µg/mL (≈ 4.42 µM)
